Where two headings read alike, the source gives them in different places. *1 amine or outer side, *2 acyl side, *3 side chain or, on linkers, in order; H or OH if unused. Where a SMILES comes first, the peptide text is derived from it. Side-chain parts run from the residue outwards. [ ]: non-standard residue; d: D form. The star is where a group is joined. γGlu = O=C(O)[C@H](CCC(=O)[*:2])N[*:1]; C14 diacid = O=C(O)CCCCCCCCCCCCC(=O)*; αMeY = C[C@](N)(Cc1ccc(O)cc1)C(=O)O; αMeF = C[C@](N)(Cc1ccccc1)C(=O)O; αMeL = CC(C)C[C@](C)(N)C(=O)O; Orn = NCCC[C@H](N)C(=O)O; AEEA = NCCOCCOCC(=O)O; Aib = CC(C)(N)C(=O)O
Tests used:
Assay type in all cases: cell-based
hGIPR = molecular target: T1, hGIPR (Homo sapiens, UniProt P48546); test: Functional cAMP formation (HTRF) in HEK-293 clonal cells expressing hGIPR, 0.1% bovine casein, without or with 1.0% human serum albumin; conditions: for Emax: 37° C., 0.1% bovine casein, arithmetic mean; for EC50: cAMP, incubated at 37° C., 0.1% bovine casein (no human serum albumin), geometric mean
T1 construct: expressed in transfected cells
T1 sequence (P48546 22-466): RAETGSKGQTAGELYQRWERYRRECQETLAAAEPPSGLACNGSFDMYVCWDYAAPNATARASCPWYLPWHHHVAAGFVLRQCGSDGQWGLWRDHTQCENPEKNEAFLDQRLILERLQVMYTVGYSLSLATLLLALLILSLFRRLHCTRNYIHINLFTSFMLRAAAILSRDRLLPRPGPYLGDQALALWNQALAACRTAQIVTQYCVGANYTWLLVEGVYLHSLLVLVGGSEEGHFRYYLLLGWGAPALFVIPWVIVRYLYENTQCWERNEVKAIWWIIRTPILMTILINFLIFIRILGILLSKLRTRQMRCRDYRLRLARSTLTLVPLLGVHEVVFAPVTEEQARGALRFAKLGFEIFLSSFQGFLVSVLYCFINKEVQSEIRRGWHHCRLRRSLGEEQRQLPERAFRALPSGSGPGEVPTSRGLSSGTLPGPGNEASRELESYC
Summary of the method: (§1)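 Readings of the HTRF 665/620 nm ratio, which falls as cAMP rises, were converted to nM cAMP using a standard curve after 30 min peptide exposure at 37° C.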

hGLP-1R = hGLP-1R (Homo sapiens, UniProt P43220); test: Functional cAMP formation (HTRF) in HEK-293 clonal cells expressing hGLP-1R, 0.1% bovine casein, without or with 1.0% human serum albumin; parameters: expressed in transfected cells; conditions: for Emax: HEK293, percent of maximal response to GLP-1(7-36)NH2, 37° C., 0.1% bovine casein, arithmetic mean, read-out: hGLP-1R Emax, % ± SEM; for EC50: cAMP, incubated at 37° C., 0.1% bovine casein (no human serum albumin), geometric mean
hGLP-1R, sequence (P43220 24-463): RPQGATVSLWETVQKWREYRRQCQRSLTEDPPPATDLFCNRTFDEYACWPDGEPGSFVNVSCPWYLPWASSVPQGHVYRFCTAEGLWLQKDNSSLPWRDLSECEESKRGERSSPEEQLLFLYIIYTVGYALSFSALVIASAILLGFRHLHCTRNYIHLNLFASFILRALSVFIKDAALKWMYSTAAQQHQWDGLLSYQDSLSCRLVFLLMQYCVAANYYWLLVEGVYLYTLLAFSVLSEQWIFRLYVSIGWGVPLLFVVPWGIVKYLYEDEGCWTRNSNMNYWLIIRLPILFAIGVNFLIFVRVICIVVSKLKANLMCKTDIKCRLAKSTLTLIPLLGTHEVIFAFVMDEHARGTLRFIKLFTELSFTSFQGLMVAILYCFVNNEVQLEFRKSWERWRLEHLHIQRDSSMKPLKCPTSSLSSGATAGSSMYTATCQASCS
Summary of the method: as §1

hGCGR = molecular target: T2, hGCGR (Homo sapiens, UniProt P47871); test: Functional cAMP formation (HTRF) in HEK-293 clonal cells expressing hGCGR, 0.1% bovine casein, without or with 1.0% human serum albumin; conditions: cAMP, incubated at 37° C., 0.1% bovine casein (no human serum albumin), geometric mean
T2 construct: expressed in transfected cells
T2 sequence (P47871 26-477): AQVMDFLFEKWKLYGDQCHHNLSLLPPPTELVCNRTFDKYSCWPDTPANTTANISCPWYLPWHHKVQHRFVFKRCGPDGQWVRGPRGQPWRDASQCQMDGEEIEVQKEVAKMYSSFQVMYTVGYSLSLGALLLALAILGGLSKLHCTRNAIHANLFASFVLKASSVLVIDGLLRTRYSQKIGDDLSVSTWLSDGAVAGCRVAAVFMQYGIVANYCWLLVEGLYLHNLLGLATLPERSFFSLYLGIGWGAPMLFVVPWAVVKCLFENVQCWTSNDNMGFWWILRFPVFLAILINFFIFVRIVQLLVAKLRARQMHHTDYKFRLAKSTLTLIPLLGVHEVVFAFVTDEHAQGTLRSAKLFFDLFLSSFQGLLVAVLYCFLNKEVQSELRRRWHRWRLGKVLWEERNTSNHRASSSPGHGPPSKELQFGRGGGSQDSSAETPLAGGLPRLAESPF
Summary of the method: as §1

[1] = HEK293, percent of maximal response to GIP(1-42)NH2, read-out: hGIPR Emax, % ± SEM
[2] = read-out: hGCGR EC50, nM (SEM, n)

Row | Structure (SMILES) | Emax (hGIPR; [1]) | Emax (hGLP-1R) | EC50 (hGCGR; [2]) | EC50 (hGLP-1R; read-out: hGLP-1R EC50, nM (SEM, n)) | EC50 (hGIPR; read-out: hGIPR EC50, nM (SEM, n)) | Emax (hGIPR; HEK293, read-out: hGIPR Emax, % ± SEM, percent of maximal response to GIP(1-42)NH2) | EC50 (hGIPR; hGIPR EC50, nM (SEM, n)) | EC50 (hGLP-1R; hGLP-1R EC50, nM (SEM, n)) | EC50 (hGCGR; hGCGR EC50, nM (SEM, n))
1 | CCCCCCCCCCCC(=O)N[C@@H](CCC(=O)NCCOCCOCC(=O)NCCOCCOCC(=O)NCCCC[C@H](NC(=O)CNC(=O)CNC(=O)[C@H](CCC(=O)O)NC(=O)[C@@H](NC(=O)[C@H](CC(C)C)NC(=O)[C@](C)(Cc1ccccc1)NC(=O)[C@@H](CCC(=O)O)NC(=O)[C@@H](NC(=O)[C@](C)(Cc1ccccc1)NC(=O)[C@H](CCC(=O)O)NC(=O)C(C)(C)NC(=O)[C@H](CCC(N)=O)NC(=O)[C@H](C)NC(=O)[C@H](CCCCNC(=O)COCCOCCNC(=O)COCCOCCNC(=O)CC[C@H](NC(=O)CCCCCCCCCCC)C(=O)O)NC(=O)[C@H](CCCN)NC(=O)[C@H](CC(=O)O)NC(=O)[C@H](CC(C)C)NC(=O)[C@](C)(CC(C)C)NC(=O)[C@@H](NC(=O)[C@H](CO)NC(=O)[C@H](Cc1ccncc1)NC(=O)[C@H](CC(=O)O)NC(=O)[C@H](CO)NC(=O)[C@@H](NC(=O)[C@](C)(Cc1ccccc1)NC(=O)[C@@H](NC(=O)CNC(=O)[C@H](CCC(=O)O)NC(=O)C(C)(C)NC(=O)[C@@H](N)Cc1ccc(O)cc1)[C@@H](C)O)[C@@H](C)O)[C@@H](C)CC)[C@@H](C)CC)[C@@H](C)CC)C(=O)N[C@@H](CO)C(=O)N[C@@H](CO)C(=O)NCC(=O)N[C@@H](C)C(=O)N1CCC[C@H]1C(=O)N1CCC[C@H]1C(=O)N1CCC[C@H]1C(=O)N[C@@H](CO)C(N)=O)C(=O)O [Example 174] | 92.2% | 98.2% | > 9950 nM |  |  |  |  |  | 
2 | CCCCCCCCCCCC(=O)N[C@@H](CCC(=O)NCCOCCOCC(=O)NCCOCCOCC(=O)NCCCC[C@H](NC(=O)CNC(=O)CNC(=O)[C@H](CCC(=O)O)NC(=O)[C@@H](NC(=O)[C@H](CC(C)C)NC(=O)[C@](C)(Cc1ccc(O)cc1)NC(=O)[C@@H](CCC(=O)O)NC(=O)[C@@H](NC(=O)[C@H](Cc1ccccc1)NC(=O)[C@H](CCC(=O)O)NC(=O)C(C)(C)NC(=O)[C@H](CCC(N)=O)NC(=O)[C@H](C)NC(=O)[C@H](CCCCNC(=O)COCCOCCNC(=O)COCCOCCNC(=O)CC[C@H](NC(=O)CCCCCCCCCCC)C(=O)O)NC(=O)[C@H](CCCN)NC(=O)[C@H](CC(=O)O)NC(=O)[C@H](CC(C)C)NC(=O)[C@](C)(CC(C)C)NC(=O)[C@@H](NC(=O)C(C)(C)NC(=O)[C@@H](NC(=O)[C@H](CC(=O)O)NC(=O)[C@H](CO)NC(=O)[C@@H](NC(=O)[C@](C)(Cc1ccccc1F)NC(=O)[C@@H](NC(=O)CNC(=O)[C@H](CCC(=O)O)NC(=O)C(C)(C)NC(=O)[C@@H](N)Cc1ccc(O)cc1)[C@@H](C)O)[C@@H](C)O)C(C)C)[C@@H](C)CC)[C@@H](C)CC)[C@@H](C)CC)C(=O)N[C@@H](CO)C(=O)N[C@@H](CO)C(=O)NCC(=O)N[C@@H](C)C(=O)N1CCC[C@H]1C(=O)N1CCC[C@H]1C(=O)N1CCC[C@H]1C(=O)N[C@@H](CO)C(N)=O)C(=O)O [Example 175] | 100% | 91.1% | > 9950 nM | 0.227 nM |  |  |  |  | 
3 | CCCCCCCCCCCC(=O)N[C@@H](CCC(=O)NCCOCCOCC(=O)NCCOCCOCC(=O)NCCCC[C@H](NC(=O)CNC(=O)CNC(=O)[C@H](CCC(=O)O)NC(=O)[C@@H](NC(=O)[C@H](CC(C)C)NC(=O)[C@](C)(Cc1ccc(O)cc1)NC(=O)[C@@H](CCC(=O)O)NC(=O)[C@@H](NC(=O)[C@H](Cc1ccccc1)NC(=O)[C@H](CCC(=O)O)NC(=O)C(C)(C)NC(=O)[C@H](CCC(N)=O)NC(=O)[C@H](C)NC(=O)[C@H](CCCCNC(=O)COCCOCCNC(=O)COCCOCCNC(=O)CC[C@H](NC(=O)CCCCCCCCCCC)C(=O)O)NC(=O)[C@H](CCCN)NC(=O)[C@H](CC(=O)O)NC(=O)[C@H](CC(C)C)NC(=O)[C@](C)(CC(C)C)NC(=O)[C@@H](NC(=O)C(C)(C)NC(=O)[C@@H](NC(=O)[C@H](CC(=O)O)NC(=O)[C@H](CO)NC(=O)[C@@H](NC(=O)[C@](C)(Cc1ccccc1)NC(=O)[C@@H](NC(=O)CNC(=O)[C@H](CCC(=O)O)NC(=O)C(C)(C)NC(=O)[C@@H](N)Cc1ccc(O)cc1)[C@@H](C)O)[C@@H](C)O)C(C)C)[C@@H](C)CC)[C@@H](C)CC)[C@@H](C)CC)C(=O)N[C@@H](CO)C(=O)N[C@@H](CO)C(=O)NCC(=O)N[C@@H](C)C(=O)N1CCC[C@H]1C(=O)N1CCC[C@H]1C(=O)N1CCC[C@H]1C(=O)N[C@@H](CO)C(N)=O)C(=O)O [Example 176] | 89.3% | 98.9% | > 9950 nM |  | 0.0485 nM |  |  |  | 
4 | CC[C@H](C)[C@H](NC(=O)[C@H](CC(C)C)NC(=O)[C@](C)(Cc1ccc(O)cc1)NC(=O)[C@@H](CCC(=O)O)NC(=O)[C@@H](NC(=O)[C@H](Cc1ccccc1)NC(=O)[C@H](CCC(=O)O)NC(=O)C(C)(C)NC(=O)[C@H](CCC(N)=O)NC(=O)[C@H](C)NC(=O)[C@H](CCCCNC(=O)COCCOCCNC(=O)COCCOCCNC(=O)CC[C@H](NC(=O)CCCCCCCCCCCCC(=O)O)C(=O)O)NC(=O)[C@H](CCCN)NC(=O)[C@H](CC(=O)O)NC(=O)[C@H](CC(C)C)NC(=O)[C@](C)(CC(C)C)NC(=O)[C@@H](NC(=O)[C@H](CO)NC(=O)[C@@H](NC(=O)[C@H](CC(=O)O)NC(=O)[C@H](CO)NC(=O)[C@@H](NC(=O)[C@](C)(Cc1ccccc1)NC(=O)[C@@H](NC(=O)CNC(=O)[C@H](CCC(=O)O)NC(=O)C(C)(C)NC(=O)[C@@H](N)Cc1ccc(O)cc1)[C@@H](C)O)[C@@H](C)O)C(C)C)[C@@H](C)CC)[C@@H](C)CC)C(=O)N[C@@H](CCC(=O)O)C(=O)NCC(=O)NCC(=O)N[C@@H](CCCCNC(=O)COCCOCCNC(=O)COCCOCCNC(=O)CC[C@H](NC(=O)CCCCCCCCCCCCC(=O)O)C(=O)O)C(=O)N[C@@H](CO)C(=O)N[C@@H](CO)C(=O)NCC(=O)N[C@@H](C)C(=O)N1CCC[C@H]1C(=O)N1CCC[C@H]1C(=O)N1CCC[C@H]1C(=O)N[C@@H](CO)C(N)=O [Example 179] (H-Y[Aib]EGT[αMeF]TSDVSI[αMeL]LD[Orn]K([AEEA-AEEA-γGlu-C14 diacid])AQ[Aib]EFI[dE][αMeY]LIEGGK([AEEA-AEEA-γGlu-C14 diacid])SSGAPPPS-NH2) | 91% | 99% | > 9950 nM |  |  |  |  |  | 
5 | CC[C@H](C)[C@H](NC(=O)[C@H](CC(C)C)NC(=O)[C@](C)(Cc1ccc(O)cc1)NC(=O)[C@H](CCCCNC(=O)COCCOCCNC(=O)COCCOCCNC(=O)CC[C@H](NC(=O)CCCCCCCCCCCCC(=O)O)C(=O)O)NC(=O)[C@@H](NC(=O)[C@H](Cc1ccccc1)NC(=O)[C@H](CCC(=O)O)NC(=O)C(C)(C)NC(=O)[C@H](CCC(N)=O)NC(=O)[C@H](C)NC(=O)[C@H](CCCCNC(=O)COCCOCCNC(=O)COCCOCCNC(=O)CC[C@H](NC(=O)CCCCCCCCCCCCC(=O)O)C(=O)O)NC(=O)[C@H](CCCN)NC(=O)[C@H](CC(=O)O)NC(=O)[C@H](CC(C)C)NC(=O)[C@](C)(CC(C)C)NC(=O)[C@@H](NC(=O)[C@H](CO)NC(=O)[C@@H](NC(=O)[C@H](CC(=O)O)NC(=O)[C@H](CO)NC(=O)[C@@H](NC(=O)[C@](C)(Cc1ccccc1)NC(=O)[C@@H](NC(=O)CNC(=O)[C@H](CCC(=O)O)NC(=O)C(C)(C)NC(=O)[C@@H](N)Cc1ccc(O)cc1)[C@@H](C)O)[C@@H](C)O)C(C)C)[C@@H](C)CC)[C@@H](C)CC)C(=O)N[C@@H](CCC(=O)O)C(=O)NCC(=O)NCC(=O)N1CCC[C@H]1C(=O)N[C@@H](CO)C(=O)N[C@@H](CO)C(=O)NCC(=O)N[C@@H](C)C(=O)N1CCC[C@H]1C(=O)N1CCC[C@H]1C(=O)N1CCC[C@H]1C(=O)N[C@@H](CO)C(N)=O [Example 181] |  |  |  |  |  | 94.6% | 0.154 nM | 0.182 nM | > 9950 nM

Source: patent publication US20230265151A1, “GIP/GLP1 CO-AGONIST COMPOUNDS” (priority 2020, published 2023)
